Test results published in ChEMBL document CHEMBL1137959, “Two new bacterial DNA primase inhibitors from the plant Polygonum cuspidatum” (Bioorg Med Chem Lett, 2004).

Experiments:
Nucleic Acid [1] = assay: Inhibitory activity against bacterial DNA primase; type: nucleic-acid assay, Escherichia coli
Nucleic Acid [2] = assay: Inhibitory activity against bacterial DNA primase in fluorescent intercalator dye displacement assay (FID); type: nucleic-acid assay, Escherichia coli

SMILES	IC50 (Nucleic Acid [1])	IC50 (Nucleic Acid [2])
O=C(OC[C@@H]1O[C@H](Oc2cc(O)cc(/C=C/c3ccc(O)cc3)c2)[C@@H](O)[C@@H](O)[C@@H]1O)c1cc(O)c(O)c(O)c1	5 µM	–
O=C(O[C@@H]1[C@@H](Oc2cc(O)cc(/C=C/c3ccc(O)cc3)c2)O[C@@H](CO)[C@@H](O)[C@@H]1O)c1cc(O)c(O)c(O)c1	4 µM	4 µM
